Results: patent US9062041B2 (Bayer Intellectual Property GmbH, priority 2011, dated 2015)

How the values were obtained:
Type in all cases: cell-based
human PGD receptor = target: T1, human PGD receptor (Homo sapiens, UniProt Q13258); assay: cAMP antagonism test on the human prostaglandin D receptor (HTRF cAMP detection); conditions: selectivity towards hDP, IC50 measured by cAMP antagonism test
T1 sequence (Q13258 1-359): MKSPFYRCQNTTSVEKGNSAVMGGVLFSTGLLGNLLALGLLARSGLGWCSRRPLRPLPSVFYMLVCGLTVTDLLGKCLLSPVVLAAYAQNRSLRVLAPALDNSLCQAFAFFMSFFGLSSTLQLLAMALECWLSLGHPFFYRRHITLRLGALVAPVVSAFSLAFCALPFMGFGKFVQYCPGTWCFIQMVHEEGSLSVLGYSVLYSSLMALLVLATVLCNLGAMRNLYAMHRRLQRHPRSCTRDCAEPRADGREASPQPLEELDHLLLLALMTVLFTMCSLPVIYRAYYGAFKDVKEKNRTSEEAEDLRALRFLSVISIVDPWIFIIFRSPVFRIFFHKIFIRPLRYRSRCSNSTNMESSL
Outline: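 Cells pre-mixed with cAMP-d2 were preincubated with compound (0.8 nM–16.5 μM) for 20 min at RT, then stimulated with 3× PGD2 solution (6 nM, in PBS-IBMX) for 30 min at RT. After lysis (20 min), HTRF read at 665/620 nm; antagonism seen as rise in FRET ratio.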

[1] = target: EP2 subtype of the human PGE2 receptor (Homo sapiens, UniProt P43116); assay: cAMP antagonism test on the human EP2 receptor (HTRF cAMP detection); conditions: hEP2 receptor, read-out: Antagonism hEP2 IC50
Outline: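 Cells expressing human EP2 preincubated 20 min at RT with compound (0.8 nM–16.5 μM), then stimulated 60 min with PGE2 (3× solution 1.5 nM) in PBS-IBMX. After 20 min lysis, cAMP measured by competitive HTRF with cAMP-d2 and Eu cryptate anti-cAMP antibody (665/620 nm ratio).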

[2] = target: EP4 subtype of the human PGE2 receptor (Homo sapiens, UniProt P35408); assay: cAMP antagonism test on the human EP4 receptor (HTRF cAMP detection); conditions: selectivity towards hEP4, IC50 measured by cAMP antagonism test
Outline: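 Cells expressing human EP4 preincubated 20 min at RT with compound (0.8 nM–16.5 μM), then stimulated with PGE2 (0.3 nM in 3× solution, with IBMX) 60 min at RT. After lysis, cAMP measured by HTRF competition (665/620 nm ratio); antagonism seen as rise in FRET signal.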

Sequence of EP4 subtype of the human PGE2 receptor (P35408 whole entry): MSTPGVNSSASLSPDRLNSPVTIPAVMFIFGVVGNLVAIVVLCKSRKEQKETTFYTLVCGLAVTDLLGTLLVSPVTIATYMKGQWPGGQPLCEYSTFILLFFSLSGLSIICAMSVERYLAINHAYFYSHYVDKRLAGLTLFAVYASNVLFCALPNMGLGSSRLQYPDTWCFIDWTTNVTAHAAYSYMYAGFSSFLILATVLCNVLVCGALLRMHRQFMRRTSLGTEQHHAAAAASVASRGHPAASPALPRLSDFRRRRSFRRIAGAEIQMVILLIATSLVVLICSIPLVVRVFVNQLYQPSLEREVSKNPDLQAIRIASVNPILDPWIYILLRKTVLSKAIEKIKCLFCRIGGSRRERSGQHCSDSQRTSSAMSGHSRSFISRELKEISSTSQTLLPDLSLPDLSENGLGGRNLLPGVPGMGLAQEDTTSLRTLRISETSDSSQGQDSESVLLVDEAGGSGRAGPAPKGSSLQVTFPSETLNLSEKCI
Sequence of EP2 subtype of the human PGE2 receptor (P43116 whole entry): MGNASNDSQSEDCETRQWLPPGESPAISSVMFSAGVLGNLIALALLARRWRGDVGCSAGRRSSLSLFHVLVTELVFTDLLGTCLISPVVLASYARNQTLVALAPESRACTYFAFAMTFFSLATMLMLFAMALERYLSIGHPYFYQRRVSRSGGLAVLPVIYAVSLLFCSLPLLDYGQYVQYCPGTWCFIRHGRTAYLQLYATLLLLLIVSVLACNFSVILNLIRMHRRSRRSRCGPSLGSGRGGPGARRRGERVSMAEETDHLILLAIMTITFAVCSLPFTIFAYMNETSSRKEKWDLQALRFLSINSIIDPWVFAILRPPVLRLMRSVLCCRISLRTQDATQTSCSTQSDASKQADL

Row | Compound | Selectivity hEP2/hDP (human PGD receptor) | IC50 [1] [nM] | Selectivity hEP2/hEP4 [2]
1 | Cc1c(C(=O)NCC(C)OC2CCC2)ccc2nn(CC3CN(C(=O)c4ccc(Cl)cc4)C3)cc12 (single isomer, unassigned) [Example 155, (S or R)-2-{[1-(4-chlorobenzoyl)azetidin-3-yl]methyl}-N-[2-(cyclobutyloxy)-propyl]-4-methyl-2H-indazol-5-carboxamide] | xxx (xxx > 100) | 29.4 | xxx (xxx > 100)
2 | COCCNC(=O)c1ccc2nn(CC3CCN(C(=O)c4ccc(C#N)cc4)CC3)cc2c1C [Example 33, 2-{[1-(4-cyano-benzoyl)piperidin-4-yl]methyl}-N-(2-methoxyethyl)-4-methyl-2H-indazol-5-carboxamide] | xxx (xxx > 100) | 34.2 | xxx (xxx > 100)
3 | COc1c(C(=O)NCCSC(F)(F)F)ccc2nn(CC3CCN(C(=O)c4ccc(Cl)cc4)CC3)cc12 [Example 265, 2-{[1-(4-chlorobenzoyl)piperidin-4-yl]methyl}-4-methoxy-N-{2-[(trifluoromethyl)sulphanyl]ethyl}-2H-indazol-5-carboxamide] | xxx (xxx > 100) | 31.5 | xxx (xxx > 100)
4 | Cc1c(C(=O)NCC(F)(F)F)ccc2nn(CC3CCN(C(=O)c4ccc(SC(F)(F)F)cc4)CC3)cc12 [Example 288, 4-methyl-N-(2,2,2-trifluoroethyl)-2-[(1-{4-[(trifluoromethyl)sulphanyl]benzoyl}-piperidin-4-yl)methyl]-2H-indazol-5-carboxamide] | xxx (xxx > 100) | 40 | xxx (xxx > 100)
5 | COCCNC(=O)c1ccc2nn(CC3CCN(C(=O)c4ccc(Cl)cc4)CC3)cc2c1OCC(F)(F)F [Example 232, 2-{[1-(4-chlorobenzoyl)piperidin-4-yl]methyl}-N-(2-methoxyethyl)-4-(2,2,2-trifluoroethoxy)-2H-indazol-5-carboxamide] | xxx (xxx > 100) | 38.3 | xxx (xxx > 100)
6 | COCCNC(=O)c1ccc2nn(CC3CCN(C(=O)c4ccc(OC)cc4F)CC3)cc2c1C [Example 7, 2-{[1-(2-fluoro-4-methoxybenzoyl)piperidin-4-yl]methyl}-N-(2-methoxyethyl)-4-methyl-2H-indazol-5-carboxamide] | xxx (xxx > 100) | 25.8 | xxx (xxx > 100)
7 | COCCNC(=O)c1ccc2nn(CC3CCN(C(=O)c4ccc(C5CCCCC5)cc4)CC3)cc2c1C [Example 335, 2-{[1-(4-cyclohexylbenzoyl)piperidin-4-yl]methyl}-N-(2-methoxyethyl)-4-methyl-2H-indazol-5-carboxamide] | xxx (xxx > 100) | 5.09 | xxx (xxx > 100)
8 | Cc1c(C(=O)NCC2COCCO2)ccc2nn(CC3CN(C(=O)c4ccc(Cl)cc4)C3)cc12 (single isomer, unassigned) [Example 143, (S or R)-2-{[1-(4-chlorobenzoyl)azetidin-3-yl]methyl}-N-(1,4-dioxan-2-ylmethyl)-4-methyl-2H-indazol-5-carboxamide] | xxx (xxx > 100) | 36.8 | xxx (xxx > 100)
9 | COCCNC(=O)c1ccc2nn(CC3CCN(C(=O)c4ccc(N5CCOCC5)cc4F)CC3)cc2c1C [Example 53, 2-{[1-(2-fluoro-4-morpholinobenzoyl)-piperidin-4-yl]-methyl}-N-(2-methoxyethyl)-4-methyl-2H-indazol-5-carboxamide] | xxx (xxx > 100) | 44.2 | xxx (xxx > 100)
10 | Cc1c(C(=O)NCC(F)(F)F)ccc2nn(CC3CCN(C(=O)c4cc5ccccc5[nH]4)CC3)cc12 [Example 296, 2-{[1-(1H-Indol-2-ylcarbonyl)piperidin-4-yl]methyl}-4-methyl-N-(2,2,2-trifluoroethyl)-2H-indazol-5-carboxamide] | xxx (xxx > 100) | 29.7 | xxx (xxx > 100)
11 | CCOc1c(C(=O)NCCOC)ccc2nn(CC3CCN(C(=O)c4ccc(Cl)cc4)CC3)cc12 [Example 274, 2-{[1-(4-chlorobenzoyl)piperidin-4-yl]methyl}-4-ethoxy-N-(2-methoxyethyl)-2H-indazol-5-carboxamide] | xxx (xxx > 100) | 44.6 | xxx (xxx > 100)
12 | COCCNC(=O)c1ccc2nn(CC3CCN(C(=O)c4cccc(C(F)(F)F)c4)CC3)cc2c1C [Example 26, N-(2-methoxyethyl)-4-methyl-2-({1-[3-(trifluoromethyl)-benzoyl]piperidin-4-yl}methyl)-2H-indazol-5-carboxamide] | xxx (xxx > 100) | 24.2 | xxx (xxx > 100)
13 | Cc1c(C(=O)NCC(C)OCC2CC2)ccc2nn(CC3CCN(C(=O)c4ccc(C5CC5)cc4)CC3)cc12 (racemic) [Example 106, (+/−)-2-{[1-(4-cyclopropylbenzoyl)piperidin-4-yl]-methyl}-N-[2-(cyclopropyl-methoxy)propyl]-4-methyl-2H-indazol-5-carboxamide] | xxx (xxx > 100) | 150 | xxx (xxx > 100)
14 | Cc1ncc(-c2ccc(C(=O)N3CCC(Cn4cc5c(C)c(C(=O)NCC(F)(F)F)ccc5n4)CC3)cc2)cn1 [Example 327, 4-methyl-2-({1-[4-(2-methylpyrimidin-5-yl)benzoyl]piperidin-4-yl}methyl)-N-(2,2,2-trifluoroethyl)-2H-indazol-5-carboxamide] | xx (xx: 10-100) | 1210 | xx (xx: 10-100)
15 | Cc1c(C(=O)NCC2CC2)ccc2nn(CC3CCN(C(=O)c4ccc(Oc5ccc(C(F)(F)F)cc5)cc4)CC3)cc12 [Example 406, N-(cyclopropylmethyl)-4-methyl-2-[(1-{4-[4-(trifluoromethyl)phenoxy]-benzoyl}piperidin-4-yl)methyl]-2H-indazol-5-carboxamide] | xxx (xxx > 100) | 8.19 | xxx (xxx > 100)
16 | COCCNC(=O)c1ccc2nn(CC3CN(C(=O)c4ccc(Oc5ccc(C(F)(F)F)cn5)cc4)C3)cc2c1C [Example 174, N-(2-methoxyethyl)-4-methyl-2-{[1-(4-{[5-(trifluoromethyl)pyridin-2-yl]oxy}benzoyl)azetidin-3-yl]methyl}-2H-indazol-5-carboxamide] | xxx (xxx > 100) | 6.58 | xxx (xxx > 100)
17 | Cc1ccc(-c2ccc(C(=O)N3CCC(Cn4cc5c(C)c(C(=O)NCC(F)(F)F)ccc5n4)CC3)cc2)nc1 [Example 324, 4-methyl-2-({1-[4-(5-methylpyridin-2-yl)benzoyl]piperidin-4-yl}methyl)-N-(2,2,2-trifluoroethyl)-2H-indazol-5-carboxamide] | xx (xx: 10-100) | 460 | xx (xx: 10-100)
18 | Cc1c(C(=O)NCCOC(C)(C)C)ccc2nn(CC3CCN(C(=O)c4ccc(Oc5ccc(C(F)(F)F)cc5)cc4)CC3)cc12 [Example 114, N-(2-tert-butoxyethyl)-4-methyl-2-[(1-{4-[4-(trifluoromethyl)-phenoxy]benzoyl}-piperidin-4-yl)methyl]-2H-indazol-5-carboxamide] | xxx (xxx > 100) | 6.08 | xxx (xxx > 100)
19 | COCCNC(=O)c1ccc2nn(CC3CCN(C(=O)c4ccc(-c5ncco5)cc4)CC3)cc2c1C [Example 35, N-(2-methoxyethyl)-4-methyl-2-({1-[4-(oxazol-2-yl)-benzoyl]piperidin-4-yl}methyl)-2H-indazol-5-carboxamide] | xxx (xxx > 100) | 69.2 | xxx (xxx > 100)
